The supplement of paper PMC10307832

How the values were obtained:
Assay in all cases: relative viability (nuclei count vs DMSO), 5 days (fraction); higher = more cells survive
[1] = test system: HOP-62
Procedure, shortened: (§1)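 Cells from lung cancer lines were seeded into 1536-well plates and, one day later, dosed by pin tool. Treatments were either a single drug or a fixed dose of an anchor drug with five library-drug doses (not always all listed) in √10 steps. After 5 days, nuclei were stained in a one-step fixation (final 0.05% Triton X-100, 1% formaldehyde, 1 ug/ml Hoechst) and counted on 4× images, and relative viability is the treated-to-vehicle nuclei ratio, as the median of duplicate plates.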

[2] = test system: COR-L 105
Procedure, shortened: as §1

[3] = test system: LXF-289
Procedure, shortened: as §1

[4] = test system: LCLC-97TM1
Procedure, shortened: as §1

[5] = test system: NCI-H1944
Procedure, shortened: as §1

[6] = test system: NCI-H2085
Procedure, shortened: as §1

[7] = test system: NCI-H1793
Procedure, shortened: as §1

[8] = test system: UMC-11
Procedure, shortened: as §1

[9] = test system: LC-2-ad
Procedure, shortened: as §1

[10] = test system: NCI-H1915
Procedure, shortened: as §1

[11] = test system: NCI-H1755
Procedure, shortened: as §1

[12] = test system: NCI-H2170
Procedure, shortened: as §1

[13] = test system: HCC-78
Procedure, shortened: as §1

[14] = test system: EPLC-272H
Procedure, shortened: as §1

[15] = test system: SK-LU-1
Procedure, shortened: as §1

[16] = test system: NCI-H1975
Procedure, shortened: as §1

[17] = test system: NCI-H358
Procedure, shortened: as §1

[18] = test system: LU99A
Procedure, shortened: as §1

[19] = test system: HCC-366
Procedure, shortened: as §1

[20] = test system: NCI-H460
Procedure, shortened: as §1

[21] = test system: A-427
Procedure, shortened: as §1

[22] = test system: NCI-H1792
Procedure, shortened: as §1

`CC1(C)CCC(c2ccc(Cl)cc2)=C(CN2CCN(c3ccc(C(=O)NS(=O)(=O)c4ccc(N[C@H](CCN5CCOCC5)CSc5ccccc5)c(S(=O)(=O)C(F)(F)F)c4)cc3)CC2)C1` [Navitoclax] + CS(=O)(=O)N1CCN(Cc2cc3nc(-c4cccc5[nH]ncc45)nc(N4CCOCC4)c3s2)CC1 [Pictilisib] (partner 1 µM) was tested, and the relative viability ([1]; first compound 0.005 µM) was 0.803, the relative viability ([1]; first compound 0.01581 µM) was 0.921 and the relative viability ([1]; first compound 0.05 µM) was 0.5. For the same compound, the relative viability ([1]; first compound 0.1581 µM) was 0.769, the relative viability ([1]; first compound 0.5 µM) was 1.17 and the relative viability ([2]; first compound 0.005 µM) was 0.352. The relative viability ([2]; first compound 0.01581 µM) was 0.45, the relative viability ([2]; first compound 0.05 µM) was 0.41 and the relative viability ([2]; first compound 0.1581 µM) was 0.368. It also gave a relative viability ([2]; first compound 0.5 µM) of 0.308, a relative viability ([3]; first compound 0.005 µM) of 0.821 and a relative viability ([3]; first compound 0.01581 µM) of 0.872. It also gave a relative viability ([3]; first compound 0.05 µM) of 0.737, a relative viability ([3]; first compound 0.1581 µM) of 0.799 and a relative viability ([3]; first compound 0.5 µM) of 0.768. It also gave a relative viability ([4]; first compound 0.005 µM) of 0.255, a relative viability ([4]; first compound 0.01581 µM) of 0.146 and a relative viability ([4]; first compound 0.05 µM) of 0.193. For the same compound, the relative viability ([4]; first compound 0.1581 µM) was 0.187, the relative viability ([4]; first compound 0.5 µM) was 0.153 and the relative viability ([5]; first compound 0.005 µM) was 0.336. For the same compound, the relative viability ([5]; first compound 0.01581 µM) was 0.371, the relative viability ([5]; first compound 0.05 µM) was 0.374 and the relative viability ([5]; first compound 0.1581 µM) was 0.357. The relative viability ([5]; first compound 0.5 µM) was 0.397, the relative viability ([6]; first compound 0.005 µM) was 0.449 and the relative viability ([6]; first compound 0.01581 µM) was 0.49. For the same compound, the relative viability ([6]; first compound 0.05 µM) was 0.475, the relative viability ([6]; first compound 0.1581 µM) was 0.507 and the relative viability ([6]; first compound 0.5 µM) was 0.596. For the same compound, the relative viability ([7]; first compound 0.005 µM) was 0.317, the relative viability ([7]; first compound 0.01581 µM) was 0.505 and the relative viability ([7]; first compound 0.05 µM) was 0.301. The relative viability ([7]; first compound 0.1581 µM) was 0.226, the relative viability ([7]; first compound 0.5 µM) was 0.242 and the relative viability ([8]; first compound 0.005 µM) was 0.743. The relative viability ([8]; first compound 0.01581 µM) was 0.809, the relative viability ([8]; first compound 0.1581 µM) was 0.741 and the relative viability ([8]; first compound 0.5 µM) was 0.516. For the same compound, the relative viability ([9]; first compound 0.005 µM) was 0.614, the relative viability ([9]; first compound 0.01581 µM) was 0.654 and the relative viability ([9]; first compound 0.05 µM) was 0.324. For the same compound, the relative viability ([9]; first compound 0.1581 µM) was 0.447, the relative viability ([9]; first compound 0.5 µM) was 0.38 and the relative viability ([10]; first compound 0.005 µM) was 0.893. For the same compound, the relative viability ([10]; first compound 0.01581 µM) was 1.02, the relative viability ([10]; first compound 0.05 µM) was 1.01 and the relative viability ([10]; first compound 0.1581 µM) was 0.933. For the same compound, the relative viability ([10]; first compound 0.5 µM) was 0.902, the relative viability ([11]; first compound 0.005 µM) was 0.425 and the relative viability ([11]; first compound 0.01581 µM) was 0.434. The relative viability ([11]; first compound 0.05 µM) was 0.252, the relative viability ([11]; first compound 0.1581 µM) was 0.406 and the relative viability ([11]; first compound 0.5 µM) was 0.352. It also gave a relative viability ([12]; first compound 0.005 µM) of 0.306, a relative viability ([12]; first compound 0.01581 µM) of 0.327 and a relative viability ([12]; first compound 0.05 µM) of 0.334. For the same compound, the relative viability ([12]; first compound 0.1581 µM) was 0.243, the relative viability ([12]; first compound 0.5 µM) was 0.203 and the relative viability ([13]; first compound 0.005 µM) was 0.184. For the same compound, the relative viability ([13]; first compound 0.01581 µM) was 0.261, the relative viability ([13]; first compound 0.1581 µM) was 0.232 and the relative viability ([13]; first compound 0.5 µM) was 0.205. The relative viability ([14]; first compound 0.005 µM) was 0.321, the relative viability ([14]; first compound 0.1581 µM) was 0.325 and the relative viability ([14]; first compound 0.5 µM) was 0.306. For the same compound, the relative viability ([15]; first compound 0.005 µM) was 0.557, the relative viability ([15]; first compound 0.01581 µM) was 0.725 and the relative viability ([15]; first compound 0.05 µM) was 0.499. For the same compound, the relative viability ([15]; first compound 0.1581 µM) was 0.522, the relative viability ([15]; first compound 0.5 µM) was 0.483 and the relative viability ([16]; first compound 0.005 µM) was 0.295. The relative viability ([16]; first compound 0.01581 µM) was 0.32, the relative viability ([16]; first compound 0.05 µM) was 0.304 and the relative viability ([16]; first compound 0.1581 µM) was 0.287. It also gave a relative viability ([16]; first compound 0.5 µM) of 0.235, a relative viability ([17]; first compound 0.005 µM) of 0.347 and a relative viability ([17]; first compound 0.01581 µM) of 0.352. For the same compound, the relative viability ([17]; first compound 0.05 µM) was 0.307, the relative viability ([17]; first compound 0.1581 µM) was 0.379 and the relative viability ([17]; first compound 0.5 µM) was 0.336. It also gave a relative viability ([18]; first compound 0.005 µM) of 0.361, a relative viability ([18]; first compound 0.01581 µM) of 0.35 and a relative viability ([18]; first compound 0.05 µM) of 0.336. The relative viability ([18]; first compound 0.1581 µM) was 0.34, the relative viability ([18]; first compound 0.5 µM) was 0.325 and the relative viability ([19]; first compound 0.005 µM) was 0.159. It also gave a relative viability ([19]; first compound 0.01581 µM) of 0.174, a relative viability ([19]; first compound 0.05 µM) of 0.207 and a relative viability ([19]; first compound 0.1581 µM) of 0.107. For the same compound, the relative viability ([19]; first compound 0.5 µM) was 0.15, the relative viability ([20]; first compound 0.005 µM) was 0.348 and the relative viability ([20]; first compound 0.01581 µM) was 0.419. The relative viability ([20]; first compound 0.1581 µM) was 0.326, the relative viability ([20]; first compound 0.5 µM) was 0.334 and the relative viability ([21]; first compound 0.005 µM) was 0.675. For the same compound, the relative viability ([21]; first compound 0.01581 µM) was 0.675, the relative viability ([21]; first compound 0.05 µM) was 0.659 and the relative viability ([21]; first compound 0.1581 µM) was 0.753. The relative viability ([21]; first compound 0.5 µM) was 0.799, the relative viability ([22]; first compound 0.005 µM) was 0.307 and the relative viability ([22]; first compound 0.01581 µM) was 0.283. The relative viability ([22]; first compound 0.05 µM) was 0.163, the relative viability ([22]; first compound 0.1581 µM) was 0.285 and the relative viability ([22]; first compound 0.5 µM) was 0.29.
